Source: US20230014226A1, “NEW COMPOUNDS AND METHODS” (BenevolentAI Bio Limited, priority 2019, published 2023)

Legend:
[1] = test system: HUVEC; assay: HUVEC Cell Viability (CV) assay; assay type: cell-based, human; conditions: Homo sapiens, alamarBlue
Protocol: Cells are seeded at 10,000 cells/well in 96-well plates in HUVEC specific cell culture media. Cells are plated and cultured overnight (16-24 h) at 37° C. After the overnight culture, cells are washed and fed with the Assay Medium. Test compounds are applied and incubated with the cells for the designated time period, after which the cell viability is measured by alamarBlue method. […] The final DMSO concentration is 1%.
Fluorescence readings are recorded after the test compound and alamarBlue incubation. The excitation and emission wavelengths are 530 nm and 590 nm, respectively.
The percent of control is calculated by comparing the readings in the presence of the test compound to the vehicle control. Subsequently, the percent inhibition is calculated by subtracting the percent control activity from 100. IC50 values (concentration causing a half-maximal inhibition of the control value) are determined by non-linear regression analysis of the concentration-response curves using the Hill equation.
The reference compound used for this assay is Staurosporine.

[2] = test system: α-synuclein in ReNcell VM Neuronal cells; assay: Modulation of α-synuclein aggregation; assay type: cell-based
Protocol: Compounds were assessed for their ability to modulate α-synuclein aggregation. ReNcell VM Neuronal cells were transduced with α-synuclein encoded adenovirus, and compounds were added after 24 hours. After 72 hours, compound was refreshed. After an additional 72 h, cells were fixated (a total of 6 days of compound treatment). Two distinct α-synuclein antibodies were added (Syn205 and MJF-14), imaging was performed on IN Cell 2200 at 10× magnification. Immunoreactivity is quantified by a high content algorithm. Compound data is normalized to a negative control (0.1% DMSO) and a positive control (10 μM KU0063794; CAS 938440-64-3).

[3] = target: hERG ion channel (Homo sapiens, UniProt Q12809); assay: hERG QPatch automated patch clamp; assay type: cell-based; conditions: CHO cells stably expressing hERG, QPatch 48, tail current
hERG ion channel, sequence (Q12809 whole entry): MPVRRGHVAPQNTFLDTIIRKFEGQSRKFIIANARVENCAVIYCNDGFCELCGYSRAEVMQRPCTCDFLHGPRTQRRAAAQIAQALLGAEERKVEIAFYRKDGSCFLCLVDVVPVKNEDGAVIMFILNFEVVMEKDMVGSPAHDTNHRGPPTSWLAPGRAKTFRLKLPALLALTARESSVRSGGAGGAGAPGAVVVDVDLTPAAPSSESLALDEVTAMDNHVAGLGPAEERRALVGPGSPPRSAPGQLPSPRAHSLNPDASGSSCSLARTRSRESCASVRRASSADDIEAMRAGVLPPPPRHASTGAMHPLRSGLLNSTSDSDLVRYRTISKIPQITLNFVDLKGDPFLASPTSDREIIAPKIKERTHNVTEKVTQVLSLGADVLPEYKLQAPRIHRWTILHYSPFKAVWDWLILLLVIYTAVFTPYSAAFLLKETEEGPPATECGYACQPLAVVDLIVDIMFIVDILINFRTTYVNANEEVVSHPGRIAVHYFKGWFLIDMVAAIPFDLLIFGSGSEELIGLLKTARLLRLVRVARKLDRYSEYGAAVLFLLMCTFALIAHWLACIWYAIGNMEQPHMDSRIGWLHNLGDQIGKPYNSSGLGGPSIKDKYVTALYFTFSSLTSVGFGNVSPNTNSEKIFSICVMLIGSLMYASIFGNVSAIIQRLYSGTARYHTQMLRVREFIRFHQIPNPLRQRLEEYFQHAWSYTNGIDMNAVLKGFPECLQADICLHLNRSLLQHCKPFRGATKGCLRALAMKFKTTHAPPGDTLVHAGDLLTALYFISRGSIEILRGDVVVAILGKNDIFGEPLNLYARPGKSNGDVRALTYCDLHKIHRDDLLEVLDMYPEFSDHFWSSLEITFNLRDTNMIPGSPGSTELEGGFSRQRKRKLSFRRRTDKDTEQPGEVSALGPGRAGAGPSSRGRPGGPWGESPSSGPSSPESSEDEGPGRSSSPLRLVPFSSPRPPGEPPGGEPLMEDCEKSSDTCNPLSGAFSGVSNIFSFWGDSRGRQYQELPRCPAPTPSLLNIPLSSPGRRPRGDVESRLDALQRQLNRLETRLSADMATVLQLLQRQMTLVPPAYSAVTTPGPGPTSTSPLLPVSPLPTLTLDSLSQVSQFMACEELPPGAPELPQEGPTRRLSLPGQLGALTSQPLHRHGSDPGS
Protocol: hERG IC50 data was supplied by Metrion using their standard assay protocol briefly detailed below.
hERG ion channel screening was assayed in CHO cells stably expressing the human ether-á-go-go related gene, using the QPatch 48 automated, chip-based planar patch clamp device. A Gigaohm seal between the cell membrane and treated silicon surface was obtained and specific external and internal buffered solutions applied to cells prior to recording. Following baseline vehicle treatment, compounds were applied in increasing concentrations (8 pt CRC), effects on hERG tail current amplitudes were measured in two-minute recordings.

[4] = test system: HUVEC (human umbilical venous endothelial cells); assay: HUVEC Tube Formation assay; assay type: cell-based; conditions: 18 h incubation, read-out: Tube formation GI50
Protocol: HUVEC (human umbilical venous endothelial cells, 1.5×10^4/well, ATCC CRL-1730) are placed in an earlier prepared 96-well plate. Test substance and/or vehicle is then added to each well in a final concentration of 0.4% DMSO in growth medium under an atmosphere of 5% CO2 at 37° C. After an 18 h incubation period, morphology of the endothelial cell tubes, which resemble a capillary-like network, are evaluated by a confocal high-content imaging system. Disruption (anti-angiogenesis) of total tube length is measured from each photograph and determined relative to the vehicle control group. […] Compounds are screened at 30, 3, 0.3, 0.03 and 0.003 μM (or μg/mL) in triplicate.

Cc1ccc(C(=O)Nc2cn(C(C)C)cn2)cc1C#Cc1cccnc1 [Example 25, N-(1-isopropylimidazol-4-yl)-4-methyl-3-[2-(3-pyridyl)ethynyl]benzamide]
IC50 [1]: 45 µM
amount of α-synuclein present in ReNcell VM neuronal cells (FIG. 4) ([2]; 6 days of compound treatment, antibodies Syn205 and MJF-14): dose dependant reduction
IC50 ([2]; ReNcell VM, 100% = reduction equal to 10 μM KU0063794, 0% = 0.1% DMSO): 1 to 10 µM
IC50 [3]: > 10 µM
GI50 [4]: > 10 µM
